ChEMBL document CHEMBL5236652, “Neuritogenic steroid glycosides from crown-of-thorns starfish: Possible involvement of p38 mitogen-activated protein kinase and attenuation of cognitive impairment in senescence-accelerated mice (SAMP8) by peripheral administration” (Bioorg Med Chem, 2023)
The source made the active and inactive calls. The calls are words filed in the database; no cut-off is given here.

Legend:
PC-12 [1] = experiment: Neuritogenic activity in rat PC-12 cells assessed as induction of neurite outgrowth at 40 uM incubated for 6 days by microscopic analysis; type: functional
PC-12 [2] = experiment: Neuritogenic activity in rat PC-12 cells assessed as induction of neurite outgrowth at 10 to 40 uM incubated for 6 days by microscopic analysis; type: functional, cell-based; settings: dose 10-40 µM, time 6.0 day
PC-12 [3] = experiment: Neuritogenic activity in rat PC-12 cells assessed as inhibition of neurite outgrowth at 40 uM incubated for 6 days in presence of K252a by microscopic analysis; type: functional, cell-based; settings: time 6.0 day
[4] = Drug uptake in ICR mouse blood at 10 mg/kg,sc and measured upto 120 mins by LC-MS analysis; type: ADME, organism-based; settings: read-out: Drug uptake
PC-12 [5] = experiment: Neuritogenic activity in rat PC-12 cells assessed as inhibition of neurite outgrowth at 1 uM incubated for 6 days in presence of SB203580 by microscopic analysis; type: functional, cell-based; settings: time 6.0 day
Mus musculus [6] = experiment: Cognitive enhancing effect in SAMP8 mouse assessed as longer exploration time at 10 mg/kg, sc for 2 weeks by Novel object recognition test; type: functional, organism-based
[7] = Drug uptake in ICR mouse brain at 10 mg/kg,sc and measured upto 120 mins by LC-MS analysis; type: ADME, organism-based; settings: read-out: Drug uptake
Mus musculus [8] = experiment: Cognitive enhancing effect in aged ICR mouse assessed as improvement of spontaneous alternation behavior by analyzing entry to different arm at 10 mg/kg, sc for 2 weeks by Y-maze test; type: functional, organism-based
Mus musculus [9] = experiment: Cognitive enhancing effect in SAMP8 mouse assessed as improvement of spontaneous alternation behavior by analyzing entry to different arm at 1 to 10 mg/kg, sc for 2 weeks by Y-maze test; type: functional, organism-based; settings: dose 1-10 mg/kg
PC-12 [10] = experiment: Neuritogenic activity in rat PC-12 cells assessed as increase in p38 phosphorylation at 40 uM and measured upto 24 hrs by Western blot analysis; type: functional, cell-based
PC-12 [11] = experiment: Neuritogenic activity in rat PC-12 cells assessed as effect on Ras activation at 40 uM incubated for 2 hrs by Western blot analysis; type: functional, cell-based
[12] = Drug uptake in ICR mouse blood at 10 mg/kg,sc and measured at 60 mins by LC-MS analysis; type: ADME, organism-based; settings: read-out: Drug uptake
PC-12 [13] = experiment: Neuritogenic activity in rat PC-12 cells assessed as inhibition of neurite outgrowth at 40 uM incubated for 6 days in presence of PD98059 by microscopic analysis; type: functional, cell-based; settings: time 6.0 day
PC-12 [14] = experiment: Neuritogenic activity in rat PC-12 cells assessed as inhibition of neurite outgrowth at 40 uM incubated for 6 days in presence of […] by microscopic analysis; type: functional, cell-based; settings: time 6.0 day
PC-12 [15] = experiment: Cytotoxicity against rat PC-12 cells assessed as reduction in cell viability upto 40 uM; type: toxicity, cell-based; settings: pc-12, 40 µM
Mus musculus [16] = experiment: Cognitive enhancing effect in aged ICR mouse assessed as longer exploration time at 10 mg/kg, sc for 2 weeks by novel object recognition test; type: functional, organism-based
PC-12 [17] = experiment: Neuritogenic activity in rat PC-12 cells overexpressing TrKA assessed as inhibition of neurite outgrowth at 40 uM incubated for 6 days by microscopic analysis; type: functional, cell-based; settings: time 6.0 day
PC-12 [18] = experiment: Neuritogenic activity in rat PC-12 cells assessed as effect on TrkA phosphorylation at 40 uM incubated for 4 hrs by Western blot analysis; type: functional, cell-based
Mus musculus [19] = experiment: Cognitive enhancing effect in SAMP8 mouse assessed as effect on locomotion by analyzing entry to different arm at 1 to 10 mg/kg, sc for 2 weeks by Y-maze test; type: functional, organism-based; settings: dose 1-10 mg/kg
PC-12 [20] = experiment: Neuritogenic activity in rat PC-12 cells assessed as effect on Cdc42 activation at 40 uM incubated for 8 to 12 hrs by Western blot analysis; type: functional, cell-based; settings: time 8-12 hrs
[21] = Toxicity in ICR mouse assessed as effect on body weight at 1 to 10 mg/kg, sc for 14 days; type: organism-based; settings: in vivo, 336 h, dose 1-10 mg/kg, time 14 day
PC-12 [22] = experiment: Neuritogenic activity in rat PC-12 cells assessed as induction of neurite outgrowth at 40 uM incubated for 1 to 6 days by microscopic analysis; type: functional, cell-based; settings: time 1-6 day, TDE = time-dependent effect
PC-12 [23] = experiment: Neuritogenic activity in rat PC-12 cells assessed as decrease in ERK phosphorylation at 40 uM and incubated for 1 to 2 hrs by Western blot analysis; type: functional, cell-based; settings: time 1-2 hrs
[24] = Drug uptake in ICR mouse brain at 10 mg/kg,sc and measured at 60 mins by LC-MS analysis; type: ADME, organism-based; settings: read-out: Drug uptake

SMILES: CO[C@@H]1[C@@H](O)[C@H](OC[C@@H](CC[C@@H](C)[C@H]2[C@@H](O)[C@H](O)[C@@H]3[C@]2(C)CC[C@H]2[C@@]3(O)C[C@@H](O)C3=C[C@@H](O[C@@H]4OC[C@@H](O)[C@H](O)[C@H]4OC)CC[C@@]32C)C(C)C)OC[C@H]1O
- Activity (PC-12 [1]; time 6 day): 43%

SMILES: CO[C@H]1[C@H](O[C@@H]2C=C3[C@H](O)C[C@@]4(O)[C@@H]5[C@@H](O)[C@H](O)[C@H]([C@H](C)CC[C@H](CO[C@@H]6OC[C@@H](O)[C@H](O)[C@H]6O)C(C)C)[C@@]5(C)CC[C@@H]4[C@@]3(C)CC2)OC[C@@H](O)[C@@H]1O
- Activity (PC-12 [2]): Dose-Dependent Effect
- Activity (PC-12 [3]): inactive
- concentration at 2 h [4]: 7.7 ng/mL
- Activity (PC-12 [5]): inactive
- Activity (Mus musculus [6]): Active
- concentration at 2 h [7]: 5 ng/g
- Activity (Mus musculus [8]): Active
- Activity (Mus musculus [9]): Active
- Activity (PC-12 [10]): Active
- Activity (PC-12 [11]): inactive
- concentration at 1 h [12]: 2000 ng/mL
- Activity (PC-12 [13]): inactive
- Activity (PC-12 [14]): inactive
- Activity (PC-12 [1]; time 6 day): 43%
- Activity (PC-12 [15]): Non-Toxic
- Activity (Mus musculus [16]): Active
- Activity (PC-12 [17]): inactive
- Activity (PC-12 [18]): inactive
- Activity (Mus musculus [19]): inactive
- Activity (PC-12 [20]): Active
- Activity [21]: Non-Toxic
- Activity (PC-12 [22]): Tde
- Activity (PC-12 [23]): Active
- concentration at 1 h [24]: 30 ng/g

SMILES: CO[C@H]1[C@H](O[C@@H]2C=C3[C@H](O)C[C@@]4(O)[C@@H]5[C@@H](O)[C@H](O)[C@H]([C@H](C)CC[C@H](CO)C(C)C)[C@@]5(C)CC[C@@H]4[C@@]3(C)CC2)OC[C@@H](O)[C@@H]1O
- Activity (PC-12 [1]; time 6.0 day): inactive
